Results as given in patent publication US8404673B2, “Carbocyclic GlyT1 receptor antagonists” (Hoffmann-La Roche Inc., priority 2009, dated 2013).

Each molecule was assayed against T1, mGlyT-1b (Mus musculus, UniProt P28571) (assay: Glycine Uptake Inhibition Assay (mGlyT-1b)). Details: IC50 data.
T1 construct: host or cells: Flp-in-CHO
T1 sequence (P28571 1-651 isoform P28571-2): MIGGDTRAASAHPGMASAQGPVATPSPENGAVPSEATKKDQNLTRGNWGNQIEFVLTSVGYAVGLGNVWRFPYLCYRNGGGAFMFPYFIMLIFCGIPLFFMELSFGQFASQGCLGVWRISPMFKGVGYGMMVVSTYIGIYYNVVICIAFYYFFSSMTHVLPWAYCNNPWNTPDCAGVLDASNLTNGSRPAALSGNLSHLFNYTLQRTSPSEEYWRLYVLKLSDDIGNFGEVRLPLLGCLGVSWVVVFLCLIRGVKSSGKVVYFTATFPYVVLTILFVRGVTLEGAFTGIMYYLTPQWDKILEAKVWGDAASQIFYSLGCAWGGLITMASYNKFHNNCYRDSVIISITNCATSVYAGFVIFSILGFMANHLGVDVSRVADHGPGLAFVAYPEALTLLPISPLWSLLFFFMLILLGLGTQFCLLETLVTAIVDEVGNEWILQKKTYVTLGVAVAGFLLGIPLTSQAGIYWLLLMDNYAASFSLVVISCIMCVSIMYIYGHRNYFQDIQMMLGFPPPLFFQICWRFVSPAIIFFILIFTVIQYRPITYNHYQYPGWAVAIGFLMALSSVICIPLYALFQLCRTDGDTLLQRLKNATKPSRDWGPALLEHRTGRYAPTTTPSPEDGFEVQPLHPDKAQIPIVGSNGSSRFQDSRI
Type: cell-based

Compound | IC50 [nM]
Cc1cc(C(F)(F)F)cc(C(F)(F)F)c1C(=O)N[C@H]1CCC[C@H]1N1CCCC1 (relative stereo) [Example 103, cis-2-Methyl-N-(2-pyrrolidin-1-yl-cyclopentyl)-4,6-bis-trifluoromethyl-benzamide] | 24.9
CSc1cc(C(F)(F)F)cc(C(F)(F)F)c1C(=O)N[C@H]1CCC[C@H]1N1CCCC1 (racemic) [Example 104, cis-2-Methylsulfanyl-N-(2-pyrrolidin-1-yl-cyclopentyl)-4,6-bis-trifluoromethyl-benzamide] | 18.9
O=C(N[C@H]1CCC[C@H]1N1CCCC1)c1c(F)cc(C(F)(F)F)cc1C(F)(F)F (relative stereo) [Example 105, cis-2-Fluoro-N-(2-pyrrolidin-1-yl-cyclopentyl)-4,6-bis-trifluoromethyl-benzamide] | 75.1
O=C(NC1CCCC1N1CCCC1)c1c(C2CC2)cc(C(F)(F)F)cc1C(F)(F)F (single isomer, unassigned; (+)) [Example 139, (+)-2-Cyclopropyl-N-((1R,2S or 1S,2R)-2-pyrrolidin-1-yl-cyclopentyl)-4,6-bis-trifluoromethyl-benzamide] | 32.5
CCc1cccc(C2CC2)c1C(=O)N[C@@H]1CCC[C@@H]1N1CCCC1 (single isomer, unassigned) [Example 120, (−)-cis-2-Cyclopropyl-6-ethyl-N-(2-pyrrolidin-1-yl-cyclopentyl)-benzamide] | 55.2
CSc1cc(C(F)(F)F)cc(C(F)(F)F)c1C(=O)N[C@@H]1CCC[C@@H]1N1CCCC1 (single isomer, unassigned) [Example 118, (+)-cis-2-Methylsulfanyl-N-(2-pyrrolidin-1-yl-cyclopentyl)-4,6-bis-trifluoromethyl-benzamide] | 60
COc1cc(C(F)(F)F)cc(SC)c1C(=O)N[C@@H]1CCC[C@@H]1N1CCCC1 (racemic) [Example 55, 2-Methoxy-6-methylsulfanyl-N-((1RS,2SR)-2-pyrrolidin-1-yl-cyclopentyl)-4-trifluoromethyl-benzamide] | 84.6
CCc1cc(C(F)(F)F)cc(OC)c1C(=O)N[C@H]1CCC[C@H]1N1CCCC1 (relative stereo) [Example 140, 2-Ethyl-6-methoxy-N-((cis)-2-pyrrolidin-1-yl-cyclopentyl)-4-trifluoromethyl-benzamide] | 55.4
COc1cc(C(F)(F)F)cc(Br)c1C(=O)NC1CCCC1N1CCCC1 (single isomer, unassigned; (+)) [Example 115, (+)-2-Bromo-6-methoxy-N-cis-(2-pyrrolidin-1-yl-cyclopentyl)-4-trifluoromethyl-benzamide] | 71.4
CCc1cc(C(F)(F)F)cc(C(F)(F)F)c1C(=O)N[C@H]1CCC[C@H]1N1CCCC1 (single isomer, unassigned) [Example 141, (+)-2-Ethyl-N-(2-pyrrolidin-1-yl-cyclopentyl)-4,6-bis-trifluoromethyl-benzamide] | 43.5
COc1cc(C(F)(F)F)cc(Br)c1C(=O)NC1CCCC1N1CCCC1 (single isomer, unassigned; (-)) [Example 114, (−)-2-Bromo-6-methoxy-N-cis-(2-pyrrolidin-1-yl-cyclopentyl)-4-trifluoromethyl-benzamide] | 66.8
O=C(N[C@@H]1CCC[C@@H]1N1CCCC1)c1c(F)cc(C(F)(F)F)cc1C(F)(F)F (single isomer, unassigned) [Example 126, (−)-cis-2-Fluoro-N-(2-pyrrolidin-1-yl-cyclopentyl)-4,6-bis-trifluoromethyl-benzamide] | 74

Same assay, conditions: read-out: IC50 data

Compound | IC50 [nM]
O=C(NC1CCCC1NC1CCCC1)c1ccc(C(F)(F)F)cc1C1CC1 (single isomer, unassigned; (+)) [Example 109, (+)-cis-N-2-Cyclopentylamino-cyclopentyl)-2-cyclopropyl-4-trifluoromethyl-benzamide] | 25.3
O=C(NC1CCCC1NC1CCCC1)c1ccc(C(F)(F)F)cc1C1CC1 (single isomer, unassigned; (-)) [Example 110, (−)-cis-N-2-Cyclopentylamino-cyclopentyl)-2-cyclopropyl-4-trifluoromethyl-benzamide] | 54.3
